Assay results published in publication PMC6959544 (Bioorganic & medicinal chemistry, 2017).

Tests used:
hTRPV1 = hTRPV1 (Homo sapiens, UniProt Q8NER1); experiment: In vitro hTRPV1 antagonism: inhibition of activation by capsaicin; type: cell-based; conditions: hTRPV1 in CHO cells, capsaicin 100 nM, FLIPR
[1] = system: CCI-induced cold allodynia (Bennett mouse model of neuropathic pain); experiment: Analgesic activity on CCI-induced cold allodynia; type: in vivo; conditions: oral
[2] = system: capsaicin-induced hypothermia; experiment: Capsaicin-induced hypothermia; type: in vivo; conditions: data not shown

hTRPV1, sequence (Q8NER1 whole entry): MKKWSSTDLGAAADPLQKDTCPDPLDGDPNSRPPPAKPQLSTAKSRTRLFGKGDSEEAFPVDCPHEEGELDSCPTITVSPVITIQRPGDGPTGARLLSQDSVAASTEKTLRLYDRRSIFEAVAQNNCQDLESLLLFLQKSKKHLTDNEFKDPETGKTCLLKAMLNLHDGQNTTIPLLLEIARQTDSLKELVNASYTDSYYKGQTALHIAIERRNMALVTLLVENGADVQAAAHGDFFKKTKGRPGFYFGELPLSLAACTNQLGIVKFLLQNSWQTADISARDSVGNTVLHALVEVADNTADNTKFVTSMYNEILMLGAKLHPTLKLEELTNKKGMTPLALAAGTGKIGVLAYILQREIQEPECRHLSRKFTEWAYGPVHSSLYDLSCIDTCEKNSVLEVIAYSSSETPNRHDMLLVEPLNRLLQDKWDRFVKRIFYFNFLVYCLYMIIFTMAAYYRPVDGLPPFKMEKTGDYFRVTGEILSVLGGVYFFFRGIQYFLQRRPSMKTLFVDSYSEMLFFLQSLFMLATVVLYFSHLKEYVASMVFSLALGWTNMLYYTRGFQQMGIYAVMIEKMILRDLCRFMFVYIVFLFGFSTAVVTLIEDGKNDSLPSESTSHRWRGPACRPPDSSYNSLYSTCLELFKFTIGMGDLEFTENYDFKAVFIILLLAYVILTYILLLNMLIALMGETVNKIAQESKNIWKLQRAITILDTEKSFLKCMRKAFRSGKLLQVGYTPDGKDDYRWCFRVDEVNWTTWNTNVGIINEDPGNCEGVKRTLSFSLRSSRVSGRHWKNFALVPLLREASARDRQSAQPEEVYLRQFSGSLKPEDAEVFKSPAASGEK

## CC(C(=O)NCc1ccc(C(C)(C)C)nc1OCc1ccc(F)cc1)c1ccc(NS(C)(=O)=O)c(F)c1 (centres unmarked) [Compound 23, N-((6-(tert-Butyl)-2-((4-fluorobenzyl)oxy)pyridin-3-yl)methyl)-2-(3-fluoro-4-(methylsulfonamido)phenyl)propanamide]
hTRPV1
  hTRPV1 antagonism (in words): good antagonism

## C[C@H](C(=O)NCc1ccc(C(C)(C)C)nc1SC1CCCCC1)c1ccc(NS(C)(=O)=O)c(F)c1 [Compound 34S]
[1]; 3 mg/kg
  antiallodynic effect on cold allodynia, % MPE: greater than 50 % MPE
[1]; 10 mg/kg
  in vivo functional character (in words): partial agonism
[1]; dose increased from 3 mg/kg to 10 mg/kg
  antiallodynic activity (in words): decreased antiallodynic activity
[2]; 3 mg/kg po
  capsaicin-induced hypothermia, % MPE: 46 % MPE
[2]; 10 mg/kg po
  capsaicin-induced hypothermia, % MPE: 15 % MPE

## N-((6-(tert-Butyl)-2-(cyclohexyloxy)pyridin-3-yl)methyl)-2-(3-fluoro-4-(methylsulfonamido)phenyl)propanamide [Compound 21]
hTRPV1
  hTRPV1 antagonism (in words): clear reduction in potency

## N-((6-(tert-Butyl)-2-(cyclopentyloxy)pyridin-3-yl)methyl)-2-(3-fluoro-4-(methylsulfonamido)phenyl)propanamide [Compound 20]
hTRPV1
  hTRPV1 antagonism (in words): clear reduction in potency
